What was measured:
Experiment in all cases: relative viability (nuclei count vs DMSO), 5 days (fraction); higher = more cells survive
NCI-H2087 = system: NCI-H2087
How it was run: (§1)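 Medians of duplicate plates are given as relative viability. That measure is the nuclei count in treated wells divided by the count in vehicle wells. Counts were taken on 4× images of lung cancer cell lines in 1536-well plates, 5 days after pin-tool dosing the day after seeding with one drug alone or a fixed anchor-drug dose plus five library-drug doses (not always all listed) in √10 steps.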

NCI-H460 = system: NCI-H460
How it was run: as §1

NCI-H441 = system: NCI-H441
How it was run: as §1

NCI-H661 = system: NCI-H661
How it was run: as §1

NCI-H727 = system: NCI-H727
How it was run: as §1

PC-3 [JPC-3] = system: PC-3 [JPC-3]
How it was run: as §1

NCI-H650 = system: NCI-H650
How it was run: as §1

HCC-15 = system: HCC-15
How it was run: as §1

NCI-H1944 = system: NCI-H1944
How it was run: as §1

NCI-H1915 = system: NCI-H1915
How it was run: as §1

CAL-12T = system: CAL-12T
How it was run: as §1

NCI-H1792 = system: NCI-H1792
How it was run: as §1

## COc1cc(N2CCC(C(N)=O)CC2)ccc1Nc1nc(N)c(Cl)c(Nc2ccccc2S(=O)(=O)C(C)C)n1 [HG-5-88-01] + CCNC(=O)c1noc(-c2cc(C(C)C)c(O)cc2O)c1-c1ccc(CN2CCOCC2)cc1 [Luminespib] (partner 0.01 µM)
NCI-H2087; first compound 0.04 µM
  relative viability: 0.173
NCI-H2087; first compound 0.1265 µM
  relative viability: 0.228
NCI-H2087; first compound 0.4 µM
  relative viability: 0.173
NCI-H2087; first compound 1.265 µM
  relative viability: 0.19
NCI-H2087; first compound 4 µM
  relative viability: 0.204
NCI-H460; first compound 0.04 µM
  relative viability: 0.0373
NCI-H460; first compound 0.1265 µM
  relative viability: 0.0308
NCI-H460; first compound 0.4 µM
  relative viability: 0.0242
NCI-H460; first compound 1.265 µM
  relative viability: 0.0363
NCI-H460; first compound 4 µM
  relative viability: 0.0375
NCI-H441; first compound 0.04 µM
  relative viability: 0.284
NCI-H441; first compound 0.1265 µM
  relative viability: 0.292
NCI-H441; first compound 0.4 µM
  relative viability: 0.476
NCI-H441; first compound 1.265 µM
  relative viability: 0.248
NCI-H441; first compound 4 µM
  relative viability: 0.297
NCI-H661; first compound 0.04 µM
  relative viability: 0.938
NCI-H661; first compound 0.1265 µM
  relative viability: 0.964
NCI-H661; first compound 0.4 µM
  relative viability: 1.04
NCI-H661; first compound 1.265 µM
  relative viability: 1.03
NCI-H661; first compound 4 µM
  relative viability: 0.951
NCI-H727; first compound 0.04 µM
  relative viability: 0.566
NCI-H727; first compound 0.1265 µM
  relative viability: 0.344
NCI-H727; first compound 0.4 µM
  relative viability: 0.337
NCI-H727; first compound 1.265 µM
  relative viability: 0.313
NCI-H727; first compound 4 µM
  relative viability: 0.31
PC-3 [JPC-3]; first compound 0.04 µM
  relative viability: 0.709
PC-3 [JPC-3]; first compound 0.1265 µM
  relative viability: 0.656
PC-3 [JPC-3]; first compound 0.4 µM
  relative viability: 0.724
PC-3 [JPC-3]; first compound 1.265 µM
  relative viability: 0.744
PC-3 [JPC-3]; first compound 4 µM
  relative viability: 0.743
NCI-H650; first compound 0.04 µM
  relative viability: 0.87
NCI-H650; first compound 0.1265 µM
  relative viability: 0.802
NCI-H650; first compound 0.4 µM
  relative viability: 0.816
NCI-H650; first compound 1.265 µM
  relative viability: 0.63
NCI-H650; first compound 4 µM
  relative viability: 0.772
HCC-15; first compound 0.04 µM
  relative viability: 0.386
HCC-15; first compound 0.1265 µM
  relative viability: 0.2
HCC-15; first compound 0.4 µM
  relative viability: 0.553
HCC-15; first compound 1.265 µM
  relative viability: 0.468
HCC-15; first compound 4 µM
  relative viability: 0.41
NCI-H1944; first compound 0.04 µM
  relative viability: 0.808
NCI-H1944; first compound 0.1265 µM
  relative viability: 0.821
NCI-H1944; first compound 0.4 µM
  relative viability: 0.759
NCI-H1944; first compound 1.265 µM
  relative viability: 0.673
NCI-H1944; first compound 4 µM
  relative viability: 0.729
NCI-H1915; first compound 0.04 µM
  relative viability: 0.774
NCI-H1915; first compound 0.1265 µM
  relative viability: 0.755
NCI-H1915; first compound 0.4 µM
  relative viability: 0.792
NCI-H1915; first compound 1.265 µM
  relative viability: 1.01
NCI-H1915; first compound 4 µM
  relative viability: 0.786
CAL-12T; first compound 0.04 µM
  relative viability: 0.583
CAL-12T; first compound 0.1265 µM
  relative viability: 1.02
CAL-12T; first compound 0.4 µM
  relative viability: 0.36
CAL-12T; first compound 1.265 µM
  relative viability: 0.392
CAL-12T; first compound 4 µM
  relative viability: 0.255
NCI-H1792; first compound 0.04 µM
  relative viability: 0.442
NCI-H1792; first compound 0.1265 µM
  relative viability: 0.609
NCI-H1792; first compound 0.4 µM
  relative viability: 0.472
NCI-H1792; first compound 1.265 µM
  relative viability: 0.325
NCI-H1792; first compound 4 µM
  relative viability: 0.552

Source: the supplement of paper PMC10307832
